Usually IC50 stands for the point on the concentration scale where inhibition reaches its midpoint. One may read the melting point as the temperature of the solid-liquid transition.

Molecules are shown by their SMILES.

The target of one data set is T1, COX-2 (Mus musculus, UniProt Q05769).
T1 construct: endogenous in cells; host or cells: thioglycollate-elicited peritoneal macrophages of male C57BL-6J mice, stimulated with LPS
T1 sequence (Q05769 18-604): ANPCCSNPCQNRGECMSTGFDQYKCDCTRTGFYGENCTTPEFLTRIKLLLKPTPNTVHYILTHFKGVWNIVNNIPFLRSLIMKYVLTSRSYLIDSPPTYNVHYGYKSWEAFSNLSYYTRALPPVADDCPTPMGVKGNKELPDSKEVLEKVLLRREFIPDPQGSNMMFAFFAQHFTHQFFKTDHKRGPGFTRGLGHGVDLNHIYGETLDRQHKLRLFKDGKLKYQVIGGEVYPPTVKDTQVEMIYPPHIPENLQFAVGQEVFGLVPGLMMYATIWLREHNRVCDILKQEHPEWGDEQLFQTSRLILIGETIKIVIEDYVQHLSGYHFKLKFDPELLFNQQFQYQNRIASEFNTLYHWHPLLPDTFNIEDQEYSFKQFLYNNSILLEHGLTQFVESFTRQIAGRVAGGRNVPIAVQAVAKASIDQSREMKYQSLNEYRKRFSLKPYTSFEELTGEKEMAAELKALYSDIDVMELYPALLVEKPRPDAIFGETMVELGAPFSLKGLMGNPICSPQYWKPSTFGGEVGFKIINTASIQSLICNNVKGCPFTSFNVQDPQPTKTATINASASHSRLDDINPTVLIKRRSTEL
The data set can be described thus: COX-2 assay: PGE2 release (RIA) from LPS-stimulated mouse peritoneal macrophages. The format is cell-based, mice. The note with it: LPS 1 mg/L 9 h, PGE2 by RIA. How it is done: Cell culture: Adherent macrophages were harvested from the peritoneal cells of male mice (C57BL-6J, Level 2, from Experiment Animal Center, Academy of Military Medical Science) 3 d after the injection (ip) of brewer thioglycollate medium (5 mL/100 g body weight). […] Cell viability was examined by trypan blue dye exclusion. All incubation procedures were performed with 5% CO2 in humidified air at 37° C.
COX-2 assay: Macrophages were incubated with test compound at different concentrations or solvent (Me2SO) for 1 h and were stimulated with LPS 1 mg/L for 9 h. The amount of PGE2 in supernatants was measured by RIA. The inhibitory ratio was calculated using the same Formula as in COX-1 assay section. Cs, Ct, Cc refer to PGE2 concentration in supernatants of LPS, test compound, and control groups, respectively.
Statistical analysis: Data were expressed as the mean±SD of more than three independent experiments. Dose-inhibitory effect curves were fit through “uphill dose response curves, variable slope” using Prism, GraphPad (version 3.00): [formula]

The subject of data set [1] is carrageenan-induced foot pad edema. Briefly: Rat carrageenan-induced foot pad edema assay. The conditions noted are these: 10 mg/kg oral. The format is in vivo. How it is done:
Male Sprgue-Dawley rats (190-220 g ) were fasted with free access to water at least 16 h prior experiments. The rats were dosed orally with a 1 ml suspension of test compound in vehicle (0.5% methyl cellulose and 0.025% Tween-20) or with vehicle alone. One hour later a subplantar injection of 0.1 ml of 1% solution of carageenan in 0.9% strile saline was administered to the right hind foot pad. Paw volume was measured with a displacement plethysmometer 2, 3, and 4 h after carrageenan injection.

In turn, `CS(=O)(=O)c1ccc(-c2[nH]c3ccccc3c2-c2ccc(Cl)cc2)cc1` [Example 61, 2-(4-methylsulfonylphenyl)-3-(4-chlorophenyl)indole] gave a melting point of 198.5 to 200.5 °C. This compound also returned an IC50 on COX-2 of 146 nM. The compound also gave an edema (paw volume increase) in data set [1] (2 h after carrageenan) of 14.6 ± 7.8%. In data set [1] (3 h after carrageenan), the edema (paw volume increase) stood at 30.6 ± 10% and the “inhibitory percentage of edema” value worked out at 51.1%. Besides, in data set [1] (4 h after carrageenan), the edema (paw volume increase) amounted to 25.7 ± 10.1% and the “inhibitory percentage of edema” value is given as 50.4%.

`NS(=O)(=O)c1ccc(-c2[nH]c3ccccc3c2-c2ccc(Cl)cc2)cc1` [Example 62, 2-(4-aminosulfonylphenyl)-3-(4-chlorophenyl)indole] returned a melting point of 298 to 300 °C. In addition, the IC50 against COX-2 is 33.5 nM. In data set [1] (2 h after carrageenan), this compound showed an edema (paw volume increase) of 16.6 ± 6.5%. In addition, in data set [1] (3 h after carrageenan), the edema (paw volume increase) worked out at 41.3 ± 13.7% and the “inhibitory percentage of edema” value was found to be 24.2%. For the same compound, in data set [1] (4 h after carrageenan), the edema (paw volume increase) came to 38.6 ± 14.9% and the “inhibitory percentage of edema” value came to 25.6%.

The compound `CS(=O)(=O)c1ccc(-c2[nH]c3ccccc3c2-c2ccc(Br)cc2)cc1` [Example 63, 2-(4-methylsulfonylphenyl)-3-(4-bromophenyl)indole] yielded a melting point of 225 to 226 °C. At COX-2, this compound came in with an IC50 of 0.369 nM. The compound further gave an edema (paw volume increase) in data set [1] (2 h after carrageenan) of 27.1 ± 10.1%. Besides, in data set [1] (3 h after carrageenan), the edema (paw volume increase) worked out at 55.3 ± 17% and the “inhibitory percentage of edema” value is reported as 11.6%. In addition, in data set [1] (4 h after carrageenan), the edema (paw volume increase) was determined as 43.6 ± 9.5% and the “inhibitory percentage of edema” value amounted to 16.1%.

Compound `Cc1ccc(-c2c(-c3ccc(S(C)(=O)=O)cc3)[nH]c3ccccc23)cc1` [Example 65, 2-(4-methylsulfonylphenyl)-3-(4-methylphenyl)indole] had a melting point of 197 to 198 °C. This compound showed a 50% inhibitory concentration (IC50) at COX-2 of 0.0896 nM. This compound also displayed an edema (paw volume increase) in data set [1] (2 h after carrageenan) of 18.5 ± 8.1%. Besides, in data set [1] (3 h after carrageenan), the edema (paw volume increase) stood at 35.8 ± 6.8% and the “inhibitory percentage of edema” value stood at 42.8%. In data set [1] (4 h after carrageenan), the edema (paw volume increase) was determined as 27.4 ± 7.1% and the “inhibitory percentage of edema” value was 47.2%.

On to `Cc1ccc(-c2c(-c3ccc(S(C)(=O)=O)cc3)[nH]c3ccccc23)cc1C` [Example 67, 2-(4-methylsulfonylphenyl)-3-(3,4-dimethylphenyl)indole], for which the melting point was in the range of 206 to 207 °C. Also, 0.166 nM corresponded to half-maximal inhibition on COX-2 (IC50). This compound also displayed an edema (paw volume increase) in data set [1] (2 h after carrageenan) of 25.6 ± 13.4%. In addition, in data set [1] (3 h after carrageenan), the edema (paw volume increase) was found to be 43.9 ± 11% and the “inhibitory percentage of edema” value is listed as 29.8%. In data set [1] (4 h after carrageenan), the edema (paw volume increase) worked out at 29.5 ± 12% and the “inhibitory percentage of edema” value was 43.1%.

In turn, `COc1ccc(-c2c(-c3ccc(S(C)(=O)=O)cc3)[nH]c3ccccc23)cc1` [Example 69, 2-(4-methylsulfonylphenyl)-3-(4-methoxyphenyl)indole] yielded a melting point of 218.5 to 220.5 °C. The same compound yielded a concentration for half-maximal inhibition (IC50) against COX-2 of 0.022 nM. For the same compound, the edema (paw volume increase) in data set [1] (2 h after carrageenan) was determined as 21.6 ± 12.4%. In data set [1] (3 h after carrageenan), the edema (paw volume increase) was found to be 43.4 ± 12.1% and the “inhibitory percentage of edema” value worked out at 30.6%. In addition, in data set [1] (4 h after carrageenan), the edema (paw volume increase) worked out at 37.8 ± 10.7% and the “inhibitory percentage of edema” value was determined as 27.1%.

As for `NS(=O)(=O)c1ccc(-c2[nH]c3ccccc3c2-c2ccc(F)cc2)cc1` [Example 72, 2-(4-aminosulfonylphenyl)-3-(4-Fluorophenyl)indole], the melting point was in the range of 228 to 230 °C. On COX-2, this compound displayed an IC50 of 5.15 nM. Besides, in data set [1] (2 h after carrageenan), the edema (paw volume increase) was 32.8 ± 13.2%. In addition, in data set [1] (3 h after carrageenan), the edema (paw volume increase) was 36.4 ± 16.9% and the “inhibitory percentage of edema” value is recorded as 40.5%. Also, in data set [1] (4 h after carrageenan), the edema (paw volume increase) came out at 35.4 ± 11.3% and the “inhibitory percentage of edema” value stood at 41.2%.

For `NS(=O)(=O)c1ccc(-c2[nH]c3ccc(Cl)cc3c2-c2ccccc2)cc1` [Example 75, 2-(4-aminosulfonylphenyl)-3-phenyl-5-chloroindole], the melting point lay in the range of 297 to 299 °C. At COX-2, 0.143 nM corresponded to half-maximal inhibition (IC50). Besides, in data set [1] (2 h after carrageenan), the edema (paw volume increase) is 35.6 ± 25.5% and the “inhibitory percentage of edema” value is 50.1%. In data set [1] (3 h after carrageenan), the edema (paw volume increase) was 44.1 ± 31.4% and the “inhibitory percentage of edema” value turned out to be 54.8%. In data set [1] (4 h after carrageenan), the edema (paw volume increase) came out at 34 ± 13.6% and the “inhibitory percentage of edema” value is 57.8%.

As for `CS(=O)(=O)c1ccc(-c2[nH]c3ccc(F)cc3c2-c2ccccc2)cc1` [Example 79, 2-(4-methylsulfonylphenyl)-3-phenyl-5-fluoroindole], the melting point lay within 243 to 245 °C. Further, it took 5 nM to reach half-maximal inhibition against COX-2 (IC50). Besides, in data set [1] (2 h after carrageenan), the edema (paw volume increase) was 41.8 ± 7.2% and the “inhibitory percentage of edema” value came out at 41.4%. Also, in data set [1] (3 h after carrageenan), the edema (paw volume increase) worked out at 47.7 ± 15.8% and the “inhibitory percentage of edema” value is 51.5%. Further, in data set [1] (4 h after carrageenan), the edema (paw volume increase) turned out to be 31.6 ± 13.3% and the “inhibitory percentage of edema” value is on record as 60.8%.

`NS(=O)(=O)c1ccc(-c2[nH]c3ccc(F)cc3c2-c2ccccc2)cc1` [Example 80, 2-(4-aminosulfonylphenyl)-3-phenyl-5-fluoroindole] had a melting point of 302 to 304 °C. The compound further gave an IC50 against COX-2 of 2 nM. In data set [1] (2 h after carrageenan), the edema (paw volume increase) is 36.7 ± 7.4% and the “inhibitory percentage of edema” value is listed as 48.6%. Further, in data set [1] (3 h after carrageenan), the edema (paw volume increase) was 46.6 ± 14% and the “inhibitory percentage of edema” value was determined as 52.2%. Besides, in data set [1] (4 h after carrageenan), the edema (paw volume increase) worked out at 40.8 ± 17.6% and the “inhibitory percentage of edema” value was found to be 49.4%.

The compound `Cc1ccc2[nH]c(-c3ccc(S(N)(=O)=O)cc3)c(-c3ccccc3)c2c1` [Example 84, 2-(4-aminosulfonylphenyl)-3-phenyl-5-methylindole] returned a melting point of 242 to 244 °C. Further, at COX-2, the half-inhibitory concentration (IC50) was 0.0171 nM. In data set [1] (2 h after carrageenan), the edema (paw volume increase) was 63.1 ± 18.1% and the “inhibitory percentage of edema” value was 40.5%. In data set [1] (3 h after carrageenan), the edema (paw volume increase) came to 65.6 ± 15.4% and the “inhibitory percentage of edema” value was determined as 32.8%. Also, in data set [1] (4 h after carrageenan), the edema (paw volume increase) worked out at 62.4 ± 15.7% and the “inhibitory percentage of edema” value is listed as 22.6%.

In turn, `CS(=O)(=O)c1ccc(-c2c(-c3ccccc3)[nH]c3ccc(Cl)cc23)cc1` [Example 87, 2-phenyl-3-(4-methylsulfonylphenyl)-5-chloroindole] registered a melting point of 273 to 275 °C. In addition, the IC50 at COX-2 is 0.27 nM. The compound also showed an edema (paw volume increase) in data set [1] (2 h after carrageenan) of 45.4 ± 9.7%. In addition, in data set [1] (3 h after carrageenan), the edema (paw volume increase) amounted to 46.9 ± 13.6% and the “inhibitory percentage of edema” value amounted to 23.4%. In addition, in data set [1] (4 h after carrageenan), the edema (paw volume increase) amounted to 43.4 ± 13.4% and the “inhibitory percentage of edema” value worked out at 27.9%.

Compound `CS(=O)(=O)c1ccc(-c2c(-c3ccc(Cl)cc3)[nH]c3ccc(Cl)cc23)cc1` [Example 89, 2-(4-chlorophenyl)-3-(4-methylsulfonylphenyl)-5-chloroindole] returned a melting point of 269 to 271 °C. The compound further displayed a 50% inhibitory concentration (IC50) at COX-2 of 354 nM. Further, in data set [1] (2 h after carrageenan), the edema (paw volume increase) was determined as 58.6 ± 15.8%. Also, in data set [1] (3 h after carrageenan), the edema (paw volume increase) stood at 66.5 ± 13.4% and the “inhibitory percentage of edema” value is given as 46.1%. Moreover, in data set [1] (4 h after carrageenan), the edema (paw volume increase) came out at 58.4 ± 13.8% and the “inhibitory percentage of edema” value is on record as 29.9%.

With `COc1ccc(-c2[nH]c3ccc(Cl)cc3c2-c2ccc(S(C)(=O)=O)cc2)cc1` [Example 90, 2-(4-methoxyphenyl)-3-(4-methylsulfonylphenyl)-5-chloroindole], the melting point is 246 to 248 °C. On COX-2, this compound registered a 50% inhibitory concentration (IC50) of 2.81 nM. In addition, in data set [1] (2 h after carrageenan), the edema (paw volume increase) amounted to 44.2 ± 11.9% and the “inhibitory percentage of edema” value amounted to 38.1%. Besides, in data set [1] (3 h after carrageenan), the edema (paw volume increase) was 46.5 ± 5.7% and the “inhibitory percentage of edema” value amounted to 52.4%. Moreover, in data set [1] (4 h after carrageenan), the edema (paw volume increase) is 40.8 ± 5.3% and the “inhibitory percentage of edema” value amounted to 49.6%.

In turn, `CS(=O)(=O)c1ccc(-c2c(-c3ccccc3F)[nH]c3ccc(Cl)cc23)cc1` [Example 92, 2-(2-fluorophenyl)-3-(4-methylsulfonylphenyl)-5-chloroindole] displayed a melting point of 246 to 248 °C. On COX-2, the midpoint of inhibition, the IC50, lay at 1.76 nM. Moreover, in data set [1] (2 h after carrageenan), the edema (paw volume increase) amounted to 31.3 ± 17% and the “inhibitory percentage of edema” value stood at 56.2%. In data set [1] (3 h after carrageenan), the edema (paw volume increase) stood at 44.6 ± 13.7% and the “inhibitory percentage of edema” value was 54.3%. Besides, in data set [1] (4 h after carrageenan), the edema (paw volume increase) worked out at 35.4 ± 18.8% and the “inhibitory percentage of edema” value came to 56.1%.
